Assay results taken from ChEMBL document CHEMBL1201862, “PubChem BioAssay data set” (2004).
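Each compound was tested at five concentrations against cells in 96-well plates for 48 hours. GI50 = concentration required for 50% inhibition of growth.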 Calls of active or inactive are those of the source. Rule as the data show it: active = GI50 up to about 1.1 µM and inactive = higher.

How the values were obtained:
Assay in all cases: NCI tumour cell line growth inhibition, 48 h
786-0 = test system: 786-0
A498 = test system: A498
A549 = test system: A549
ACHN = test system: ACHN
CAKI-1 = test system: CAKI-1
CCRF-CEM = test system: CCRF-CEM
COLO 205 = test system: COLO 205
DU-145 = test system: DU-145
EKVX = test system: EKVX
HCC 2998 = test system: HCC 2998
HCT-116 = test system: HCT-116
HCT-15 = test system: HCT-15
HL-60 = test system: HL-60
HOP-62 = test system: HOP-62
HT-29 = test system: HT-29
Hs-578T = test system: Hs-578T
IGROV-1 = test system: IGROV-1
K562 = test system: K562
KM12 = test system: KM12
M14 = test system: M14
MCF7 = test system: MCF7
MDA-MB-231 = test system: MDA-MB-231
MDA-MB-435 = test system: MDA-MB-435
MDA-N = test system: MDA-N
MOLT-4 = test system: MOLT-4
Malme-3M = test system: Malme-3M
NCI-H226 = test system: NCI-H226
NCI-H23 = test system: NCI-H23
NCI-H460 = test system: NCI-H460
NCI/ADR-RES = test system: NCI/ADR-RES
OVCAR-4 = test system: OVCAR-4
OVCAR-5 = test system: OVCAR-5
OVCAR-8 = test system: OVCAR-8
PC-3 = test system: PC-3
RPMI-8226 = test system: RPMI-8226
SF-268 = test system: SF-268
SF-295 = test system: SF-295
SF-539 = test system: SF-539
SK-MEL-28 = test system: SK-MEL-28
SK-MEL-2 = test system: SK-MEL-2
SK-MEL-5 = test system: SK-MEL-5
SK-OV-3 = test system: SK-OV-3
SN12C = test system: SN12C
SNB-19 = test system: SNB-19
SNB-75 = test system: SNB-75
SR = test system: SR
SW-620 = test system: SW-620
T47D = test system: T47D
TK-10 = test system: TK-10
U-251 = test system: U-251
UACC-257 = test system: UACC-257
UACC-62 = test system: UACC-62
UO-31 = test system: UO-31
HOP-92 = test system: HOP-92
LOX IMVI = test system: LOX IMVI
NCI-H522 = test system: NCI-H522
OVCAR-3 = test system: OVCAR-3
RXF 393 = test system: RXF 393

COc1ccc(/C=C/C(=O)c2ccc(Br)cc2)cc1
GI50 (786-0): > 100 µM (inactive) | GI50 (A498): > 100 µM (inactive) | GI50 (A549): > 100 µM (inactive) | GI50 (ACHN): > 100 µM (inactive) | GI50 (CAKI-1): > 100 µM (inactive) | GI50 (CCRF-CEM): > 100 µM (inactive) | GI50 (COLO 205): > 100 µM (inactive) | GI50 (DU-145): > 100 µM (inactive) | GI50 (EKVX): > 100 µM (inactive) | GI50 (HCC 2998): > 100 µM (inactive) | GI50 (HCT-116): 80.4 µM (inactive) | GI50 (HCT-15): > 100 µM | GI50 (HL-60): 66.8 µM (inactive) | GI50 (HOP-62): > 100 µM (inactive) | GI50 (HT-29): > 100 µM (inactive) | GI50 (Hs-578T): 64.7 µM (inactive) | GI50 (IGROV-1): > 100 µM (inactive) | GI50 (K562): > 100 µM (inactive) | GI50 (KM12): > 100 µM (inactive) | GI50 (M14): > 100 µM (inactive) | GI50 (MCF7): 85.7 µM (inactive) | GI50 (MDA-MB-231): > 100 µM (inactive) | GI50 (MDA-MB-435): > 100 µM (inactive) | GI50 (MDA-N): > 100 µM (inactive) | GI50 (MOLT-4): 59.3 µM (inactive) | GI50 (Malme-3M): > 100 µM (inactive) | GI50 (NCI-H226): > 100 µM (inactive) | GI50 (NCI-H23): 30.6 µM (inactive) | GI50 (NCI-H460): > 100 µM (inactive) | GI50 (NCI/ADR-RES): 52 µM (inactive) | GI50 (OVCAR-4): > 100 µM (inactive) | GI50 (OVCAR-5): 18.4 µM (inactive) | GI50 (OVCAR-8): > 100 µM (inactive) | GI50 (PC-3): > 100 µM (inactive) | GI50 (RPMI-8226): 57 µM (inactive) | GI50 (SF-268): > 100 µM (inactive) | GI50 (SF-295): > 100 µM (inactive) | GI50 (SF-539): > 100 µM (inactive) | GI50 (SK-MEL-28): > 100 µM (inactive) | GI50 (SK-MEL-2): > 100 µM (inactive) | GI50 (SK-MEL-5): > 100 µM (inactive) | GI50 (SK-OV-3): > 100 µM (inactive) | GI50 (SN12C): > 100 µM (inactive) | GI50 (SNB-19): > 100 µM (inactive) | GI50 (SNB-75): 93.5 µM (inactive) | GI50 (SR): 84.1 µM (inactive) | GI50 (SW-620): > 100 µM (inactive) | GI50 (T47D): 42.4 µM (inactive) | GI50 (TK-10): > 100 µM (inactive) | GI50 (U-251): > 100 µM (inactive) | GI50 (UACC-257): > 10 µM (inactive) | GI50 (UACC-62): > 100 µM (inactive) | GI50 (UO-31): 78.7 µM (inactive)

CCN(CC)C(=O)CCNC(C)Cc1c[nH]c2ccccc12 (stereo unspecified)
GI50 (786-0): > 100 µM (inactive) | GI50 (A498): > 100 µM (inactive) | GI50 (A549): > 100 µM (inactive) | GI50 (ACHN): > 100 µM (inactive) | GI50 (CAKI-1): > 100 µM (inactive) | GI50 (CCRF-CEM): > 100 µM (inactive) | GI50 (COLO 205): > 100 µM (inactive) | GI50 (DU-145): > 100 µM (inactive) | GI50 (EKVX): > 100 µM (inactive) | GI50 (HCC 2998): > 100 µM (inactive) | GI50 (HCT-116): > 100 µM (inactive) | GI50 (HCT-15): > 100 µM | GI50 (HL-60): > 100 µM (inactive) | GI50 (HOP-62): > 100 µM (inactive) | GI50 (HOP-92): 96.8 µM (inactive) | GI50 (HT-29): > 100 µM (inactive) | GI50 (Hs-578T): > 100 µM (inactive) | GI50 (IGROV-1): > 100 µM (inactive) | GI50 (K562): > 100 µM (inactive) | GI50 (KM12): > 100 µM (inactive) | GI50 (LOX IMVI): > 100 µM (inactive) | GI50 (M14): > 100 µM (inactive) | GI50 (MDA-MB-231): > 100 µM (inactive) | GI50 (MDA-MB-435): > 100 µM (inactive) | GI50 (MDA-N): > 100 µM (inactive) | GI50 (MOLT-4): > 100 µM (inactive) | GI50 (Malme-3M): > 100 µM (inactive) | GI50 (NCI-H226): > 100 µM (inactive) | GI50 (NCI-H23): > 100 µM (inactive) | GI50 (NCI-H460): > 100 µM (inactive) | GI50 (NCI-H522): > 100 µM (inactive) | GI50 (NCI/ADR-RES): > 100 µM (inactive) | GI50 (OVCAR-3): > 100 µM (inactive) | GI50 (OVCAR-4): > 100 µM (inactive) | GI50 (OVCAR-5): > 100 µM (inactive) | GI50 (OVCAR-8): > 100 µM (inactive) | GI50 (PC-3): > 100 µM (inactive) | GI50 (RPMI-8226): > 100 µM (inactive) | GI50 (RXF 393): > 100 µM (inactive) | GI50 (SF-268): > 100 µM (inactive) | GI50 (SF-295): > 100 µM (inactive) | GI50 (SF-539): > 100 µM (inactive) | GI50 (SK-MEL-28): > 100 µM (inactive) | GI50 (SK-MEL-2): > 100 µM (inactive) | GI50 (SK-MEL-5): > 100 µM (inactive) | GI50 (SK-OV-3): > 100 µM (inactive) | GI50 (SN12C): > 100 µM (inactive) | GI50 (SNB-19): > 100 µM (inactive) | GI50 (SNB-75): > 100 µM (inactive) | GI50 (SR): > 100 µM (inactive) | GI50 (SW-620): > 100 µM (inactive) | GI50 (T47D): > 100 µM (inactive) | GI50 (TK-10): > 100 µM (inactive) | GI50 (U-251): > 100 µM (inactive) | GI50 (UACC-257): > 100 µM (inactive) | GI50 (UACC-62): > 100 µM (inactive) | GI50 (UO-31): > 100 µM (inactive)

O=C(NCCCn1ccnc1[N+](=O)[O-])C(=O)NCCCn1ccnc1[N+](=O)[O-]
GI50 (786-0): > 100 µM (inactive) | GI50 (ACHN): > 100 µM (inactive) | GI50 (CCRF-CEM): > 100 µM (inactive) | GI50 (EKVX): > 100 µM (inactive) | GI50 (HCC 2998): > 100 µM (inactive) | GI50 (HCT-116): > 100 µM (inactive) | GI50 (HCT-15): > 100 µM | GI50 (HL-60): > 100 µM (inactive) | GI50 (HOP-62): > 100 µM (inactive) | GI50 (HT-29): > 100 µM (inactive) | GI50 (Hs-578T): > 100 µM (inactive) | GI50 (K562): > 100 µM (inactive) | GI50 (KM12): > 100 µM (inactive) | GI50 (MCF7): > 100 µM (inactive) | GI50 (MOLT-4): > 100 µM (inactive) | GI50 (Malme-3M): > 100 µM (inactive) | GI50 (NCI-H226): > 100 µM (inactive) | GI50 (NCI-H23): > 100 µM (inactive) | GI50 (NCI-H460): > 100 µM (inactive) | GI50 (NCI-H522): > 100 µM (inactive) | GI50 (OVCAR-3): > 100 µM (inactive) | GI50 (OVCAR-5): > 100 µM (inactive) | GI50 (OVCAR-8): 69.2 µM (inactive) | GI50 (PC-3): > 100 µM (inactive) | GI50 (RPMI-8226): > 100 µM (inactive) | GI50 (SF-268): > 100 µM (inactive) | GI50 (SF-295): > 100 µM (inactive) | GI50 (SF-539): > 100 µM (inactive) | GI50 (SK-MEL-28): > 100 µM (inactive) | GI50 (SK-MEL-2): 45.2 µM (inactive) | GI50 (SN12C): 90.6 µM (inactive) | GI50 (SNB-75): > 100 µM (inactive) | GI50 (SR): > 100 µM (inactive) | GI50 (TK-10): 31.3 µM (inactive) | GI50 (U-251): > 100 µM (inactive) | GI50 (UACC-257): > 100 µM (inactive)
